From ChEMBL document CHEMBL5465560, “Selectivity Literature for EUbOPEN Chemogenomic Library” (2024) come the findings set out here.

Test [1] deals with T1, Lymphokine-activated killer T-cell-originated protein kinase (Homo sapiens) (UniProt Q96KB5).
T1 sequence (whole entry): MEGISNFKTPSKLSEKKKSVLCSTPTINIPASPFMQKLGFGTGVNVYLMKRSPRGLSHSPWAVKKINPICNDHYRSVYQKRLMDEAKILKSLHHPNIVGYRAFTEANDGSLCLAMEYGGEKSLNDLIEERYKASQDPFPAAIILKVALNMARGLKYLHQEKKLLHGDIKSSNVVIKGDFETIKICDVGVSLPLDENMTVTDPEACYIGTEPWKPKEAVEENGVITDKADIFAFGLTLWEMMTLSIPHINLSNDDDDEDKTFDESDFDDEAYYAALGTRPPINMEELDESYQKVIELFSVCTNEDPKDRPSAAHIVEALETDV
The test can be described thus: Selectivity interaction (ProQinase) EUB0000171b PBK.

For test [2], the target named is T2, Non-receptor tyrosine-protein kinase TNK1 (Homo sapiens) (UniProt Q13470).
T2 sequence (whole entry): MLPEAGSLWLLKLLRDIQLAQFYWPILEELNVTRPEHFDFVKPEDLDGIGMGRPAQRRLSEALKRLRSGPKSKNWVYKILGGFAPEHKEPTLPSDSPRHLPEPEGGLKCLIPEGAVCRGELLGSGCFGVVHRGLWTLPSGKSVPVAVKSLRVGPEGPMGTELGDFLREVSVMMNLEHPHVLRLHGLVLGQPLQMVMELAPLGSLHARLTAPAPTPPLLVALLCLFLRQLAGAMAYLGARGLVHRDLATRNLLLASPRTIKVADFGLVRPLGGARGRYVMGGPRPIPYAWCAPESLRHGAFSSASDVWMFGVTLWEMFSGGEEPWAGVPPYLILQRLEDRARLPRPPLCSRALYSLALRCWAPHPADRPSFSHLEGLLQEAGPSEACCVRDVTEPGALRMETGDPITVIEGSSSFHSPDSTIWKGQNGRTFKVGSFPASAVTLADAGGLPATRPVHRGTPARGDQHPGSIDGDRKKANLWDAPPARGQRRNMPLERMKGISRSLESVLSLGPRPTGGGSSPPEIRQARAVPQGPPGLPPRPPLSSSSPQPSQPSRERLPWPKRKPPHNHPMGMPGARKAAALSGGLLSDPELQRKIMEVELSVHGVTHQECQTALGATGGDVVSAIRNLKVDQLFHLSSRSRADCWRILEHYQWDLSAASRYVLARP
The experiment in a line: Selectivity interaction (ProQinase) EUB0000171b TNK1.

Test [3] has as its target RAC-gamma serine/threonine-protein kinase (Homo sapiens, UniProt Q9Y243). The test can be described thus: Selectivity interaction (Kinase panel (DSF assay)) EUB0001558a AKT3. On the technique in general: DSF heats the sample and reads unfolding from a dye or from intrinsic fluorescence.
Test [4] addresses Rho-associated protein kinase 2 (Homo sapiens, UniProt O75116). The experiment in a line: Selectivity interaction (Ambit KINOMEscan and KiNATiv profiling in Jurkat cells) EUB0000090b ROCK2. The test is classed as cell-based. As to conditions: at 1 µM.
Test [5] addresses SRSF protein kinase 3 (Homo sapiens) (UniProt Q9UPE1). The test can be described thus: Selectivity interaction (Ambit KINOMEscan and KiNATiv profiling in Jurkat cells) EUB0000090b SRPK3. The test is classed as cell-based. As to conditions: at 1 µM.
The target of test [6] is T3, MAP kinase-activated protein kinase 5 (Homo sapiens) (UniProt Q8IW41).
T3 sequence (whole entry): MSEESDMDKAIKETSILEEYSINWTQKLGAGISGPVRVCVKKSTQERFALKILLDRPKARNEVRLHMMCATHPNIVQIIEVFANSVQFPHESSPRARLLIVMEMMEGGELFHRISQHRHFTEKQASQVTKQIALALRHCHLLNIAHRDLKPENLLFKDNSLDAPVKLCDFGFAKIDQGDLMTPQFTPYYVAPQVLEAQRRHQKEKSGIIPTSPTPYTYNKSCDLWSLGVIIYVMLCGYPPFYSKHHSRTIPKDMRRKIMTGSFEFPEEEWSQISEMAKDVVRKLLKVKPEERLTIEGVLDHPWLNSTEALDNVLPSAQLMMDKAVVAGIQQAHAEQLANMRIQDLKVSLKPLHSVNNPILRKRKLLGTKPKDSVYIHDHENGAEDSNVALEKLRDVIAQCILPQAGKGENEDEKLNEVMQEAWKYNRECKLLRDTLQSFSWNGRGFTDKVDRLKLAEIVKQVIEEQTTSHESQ
As to conditions: at 10 µM.

The target of test [7] is Fibroblast growth factor receptor 1 (Homo sapiens, UniProt P11362). The test can be described thus: Selectivity interaction (KinomeScan (DiscoverX)) EUB0000045b FGFR1.
For test [8], the target named is Serine/threonine-protein kinase MARK1 (Homo sapiens) (UniProt Q9P0L2). The experiment in a line: Selectivity interaction (SelectScreen profiling (Invitrogen)) EUB0000607a MARK1. As to conditions: at 2 µM.
Test [9] addresses T4, Tyrosine-protein kinase ITK/TSK (Homo sapiens) (UniProt Q08881).
T4 sequence (whole entry): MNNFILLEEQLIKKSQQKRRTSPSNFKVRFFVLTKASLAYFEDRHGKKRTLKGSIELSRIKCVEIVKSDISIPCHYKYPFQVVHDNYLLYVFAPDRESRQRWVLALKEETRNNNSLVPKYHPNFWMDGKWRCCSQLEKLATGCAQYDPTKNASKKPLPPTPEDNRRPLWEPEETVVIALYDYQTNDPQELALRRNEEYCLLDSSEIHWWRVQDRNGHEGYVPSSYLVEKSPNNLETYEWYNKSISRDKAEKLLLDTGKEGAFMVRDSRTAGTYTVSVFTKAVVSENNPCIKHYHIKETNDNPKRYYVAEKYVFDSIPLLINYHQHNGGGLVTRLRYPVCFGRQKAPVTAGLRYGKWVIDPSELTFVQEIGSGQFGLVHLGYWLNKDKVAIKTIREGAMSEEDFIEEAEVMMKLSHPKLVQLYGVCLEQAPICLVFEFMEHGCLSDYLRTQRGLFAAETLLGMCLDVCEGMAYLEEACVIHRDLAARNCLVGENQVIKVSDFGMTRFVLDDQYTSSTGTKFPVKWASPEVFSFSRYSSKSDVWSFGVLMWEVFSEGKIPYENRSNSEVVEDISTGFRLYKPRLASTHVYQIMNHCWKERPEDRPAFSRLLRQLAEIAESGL
The experiment in a line: Selectivity interaction (SelectScreen profiling (Invitrogen)) EUB0000607a ITK. As to conditions: at 2 µM.

Test [10] concerns the target Activin receptor type-1-like (Homo sapiens) (UniProt P37023). The experiment in a line: Selectivity interaction (KinomeScan (DiscoverX)) EUB0000607a ACVRL1. As to conditions: at 10 µM.

SMILES strings stand for the structures.

Fibroblast growth factor receptor 1, sequence (P11362 22-822 limits assumed): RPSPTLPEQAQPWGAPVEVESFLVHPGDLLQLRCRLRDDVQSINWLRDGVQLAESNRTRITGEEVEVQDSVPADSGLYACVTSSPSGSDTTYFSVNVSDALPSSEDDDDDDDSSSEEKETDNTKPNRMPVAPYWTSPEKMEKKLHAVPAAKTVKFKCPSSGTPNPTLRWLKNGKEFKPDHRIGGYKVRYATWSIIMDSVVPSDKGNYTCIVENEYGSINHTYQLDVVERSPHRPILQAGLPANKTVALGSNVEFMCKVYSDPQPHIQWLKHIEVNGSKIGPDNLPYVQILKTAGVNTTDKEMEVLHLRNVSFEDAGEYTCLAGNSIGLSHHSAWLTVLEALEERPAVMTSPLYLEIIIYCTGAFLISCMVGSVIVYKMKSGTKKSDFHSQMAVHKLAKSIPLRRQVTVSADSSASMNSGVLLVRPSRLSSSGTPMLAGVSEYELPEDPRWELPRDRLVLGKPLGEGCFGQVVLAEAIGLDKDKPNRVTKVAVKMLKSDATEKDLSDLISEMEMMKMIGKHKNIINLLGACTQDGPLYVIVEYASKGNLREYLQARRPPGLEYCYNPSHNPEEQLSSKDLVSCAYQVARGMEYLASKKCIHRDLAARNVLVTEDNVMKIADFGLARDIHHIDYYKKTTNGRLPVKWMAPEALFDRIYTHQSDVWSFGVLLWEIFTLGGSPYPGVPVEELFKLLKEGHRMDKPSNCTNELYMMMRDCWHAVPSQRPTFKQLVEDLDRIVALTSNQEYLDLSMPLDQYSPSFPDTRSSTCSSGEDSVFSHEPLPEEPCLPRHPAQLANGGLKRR
Rho-associated protein kinase 2, sequence (O75116 whole entry, looked up): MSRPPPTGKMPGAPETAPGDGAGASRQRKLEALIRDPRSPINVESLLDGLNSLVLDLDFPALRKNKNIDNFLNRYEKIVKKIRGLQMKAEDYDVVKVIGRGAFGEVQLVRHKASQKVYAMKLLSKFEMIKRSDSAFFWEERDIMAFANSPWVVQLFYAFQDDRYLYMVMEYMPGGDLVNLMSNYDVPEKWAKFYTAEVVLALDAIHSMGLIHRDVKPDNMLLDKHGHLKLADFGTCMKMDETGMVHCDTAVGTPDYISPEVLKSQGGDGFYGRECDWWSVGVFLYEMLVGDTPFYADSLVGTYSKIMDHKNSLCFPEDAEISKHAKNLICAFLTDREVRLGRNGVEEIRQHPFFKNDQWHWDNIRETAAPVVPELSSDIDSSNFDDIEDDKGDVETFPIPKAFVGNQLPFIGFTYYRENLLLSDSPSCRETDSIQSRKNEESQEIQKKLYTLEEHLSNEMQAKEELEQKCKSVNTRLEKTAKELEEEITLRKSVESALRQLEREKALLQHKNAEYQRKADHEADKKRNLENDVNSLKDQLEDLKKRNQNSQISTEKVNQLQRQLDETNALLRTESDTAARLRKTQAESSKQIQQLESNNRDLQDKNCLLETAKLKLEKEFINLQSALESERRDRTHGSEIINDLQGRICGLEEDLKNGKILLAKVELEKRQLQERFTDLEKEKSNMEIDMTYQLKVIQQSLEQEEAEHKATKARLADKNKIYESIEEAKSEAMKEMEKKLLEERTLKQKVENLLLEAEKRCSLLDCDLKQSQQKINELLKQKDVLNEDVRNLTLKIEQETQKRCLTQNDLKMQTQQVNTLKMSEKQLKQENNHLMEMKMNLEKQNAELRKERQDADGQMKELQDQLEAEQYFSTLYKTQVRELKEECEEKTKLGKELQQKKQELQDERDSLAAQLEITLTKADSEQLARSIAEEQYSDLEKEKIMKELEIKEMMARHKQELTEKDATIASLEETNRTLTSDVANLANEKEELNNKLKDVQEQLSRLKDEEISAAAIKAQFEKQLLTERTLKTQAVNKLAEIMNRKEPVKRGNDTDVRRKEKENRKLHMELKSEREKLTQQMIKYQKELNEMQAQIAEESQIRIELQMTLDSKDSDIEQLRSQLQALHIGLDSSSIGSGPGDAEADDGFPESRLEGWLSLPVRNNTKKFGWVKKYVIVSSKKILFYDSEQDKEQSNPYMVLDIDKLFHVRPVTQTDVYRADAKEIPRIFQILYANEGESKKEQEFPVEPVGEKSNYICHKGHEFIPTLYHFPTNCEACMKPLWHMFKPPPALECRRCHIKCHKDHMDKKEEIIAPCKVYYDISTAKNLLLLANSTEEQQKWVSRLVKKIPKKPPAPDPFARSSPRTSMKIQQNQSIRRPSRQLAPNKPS
Serine/threonine-protein kinase MARK1 (Homo sapiens), sequence (Q9P0L2 whole entry, looked up): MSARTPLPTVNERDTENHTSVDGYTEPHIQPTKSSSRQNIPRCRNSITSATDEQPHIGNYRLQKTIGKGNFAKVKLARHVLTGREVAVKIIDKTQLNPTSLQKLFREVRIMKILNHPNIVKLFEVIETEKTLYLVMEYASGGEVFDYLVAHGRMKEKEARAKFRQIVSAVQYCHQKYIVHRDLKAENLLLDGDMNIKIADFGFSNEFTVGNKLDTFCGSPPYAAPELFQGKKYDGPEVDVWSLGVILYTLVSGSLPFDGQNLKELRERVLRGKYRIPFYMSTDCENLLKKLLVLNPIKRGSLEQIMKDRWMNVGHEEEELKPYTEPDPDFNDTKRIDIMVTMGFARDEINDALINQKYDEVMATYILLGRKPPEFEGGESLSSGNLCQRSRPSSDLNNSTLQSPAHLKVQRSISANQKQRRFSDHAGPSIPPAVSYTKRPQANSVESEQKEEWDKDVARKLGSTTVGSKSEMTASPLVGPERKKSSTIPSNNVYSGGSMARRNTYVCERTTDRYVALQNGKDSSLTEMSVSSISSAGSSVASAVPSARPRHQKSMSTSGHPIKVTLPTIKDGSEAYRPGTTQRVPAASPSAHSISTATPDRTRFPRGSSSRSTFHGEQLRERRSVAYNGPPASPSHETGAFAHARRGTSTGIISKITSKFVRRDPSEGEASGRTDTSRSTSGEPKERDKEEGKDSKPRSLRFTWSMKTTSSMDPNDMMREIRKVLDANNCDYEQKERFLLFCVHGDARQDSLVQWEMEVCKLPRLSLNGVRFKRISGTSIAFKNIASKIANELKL
SRSF protein kinase 3 (Homo sapiens), sequence (Q9UPE1 whole entry): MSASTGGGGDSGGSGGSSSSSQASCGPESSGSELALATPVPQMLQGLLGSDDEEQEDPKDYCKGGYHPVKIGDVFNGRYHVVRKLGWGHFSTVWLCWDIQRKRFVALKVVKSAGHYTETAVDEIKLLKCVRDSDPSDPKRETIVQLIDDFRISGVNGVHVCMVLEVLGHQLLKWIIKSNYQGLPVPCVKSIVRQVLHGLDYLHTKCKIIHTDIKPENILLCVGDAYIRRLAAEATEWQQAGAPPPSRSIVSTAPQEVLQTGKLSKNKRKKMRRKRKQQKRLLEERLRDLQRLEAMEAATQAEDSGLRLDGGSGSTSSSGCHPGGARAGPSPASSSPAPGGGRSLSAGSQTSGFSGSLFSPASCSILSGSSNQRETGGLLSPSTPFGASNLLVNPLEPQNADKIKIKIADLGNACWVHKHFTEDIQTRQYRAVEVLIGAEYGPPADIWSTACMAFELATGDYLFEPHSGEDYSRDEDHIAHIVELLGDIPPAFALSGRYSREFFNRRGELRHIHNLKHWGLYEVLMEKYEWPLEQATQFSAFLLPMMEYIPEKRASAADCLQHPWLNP
RAC-gamma serine/threonine-protein kinase, sequence (Q9Y243 whole entry): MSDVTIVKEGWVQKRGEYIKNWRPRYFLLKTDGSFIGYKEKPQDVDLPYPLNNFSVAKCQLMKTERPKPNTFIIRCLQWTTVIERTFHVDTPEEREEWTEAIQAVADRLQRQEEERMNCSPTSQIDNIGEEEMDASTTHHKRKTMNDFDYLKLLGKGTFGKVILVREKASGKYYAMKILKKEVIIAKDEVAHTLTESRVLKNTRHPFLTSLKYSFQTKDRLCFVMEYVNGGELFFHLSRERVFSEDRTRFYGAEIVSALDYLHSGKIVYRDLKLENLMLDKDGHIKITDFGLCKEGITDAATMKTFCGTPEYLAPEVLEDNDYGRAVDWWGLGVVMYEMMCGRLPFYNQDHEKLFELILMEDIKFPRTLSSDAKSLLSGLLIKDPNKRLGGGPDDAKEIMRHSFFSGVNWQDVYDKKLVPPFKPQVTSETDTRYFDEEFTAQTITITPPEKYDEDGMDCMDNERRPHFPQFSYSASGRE
Activin receptor type-1-like (Homo sapiens), sequence (P37023 whole entry): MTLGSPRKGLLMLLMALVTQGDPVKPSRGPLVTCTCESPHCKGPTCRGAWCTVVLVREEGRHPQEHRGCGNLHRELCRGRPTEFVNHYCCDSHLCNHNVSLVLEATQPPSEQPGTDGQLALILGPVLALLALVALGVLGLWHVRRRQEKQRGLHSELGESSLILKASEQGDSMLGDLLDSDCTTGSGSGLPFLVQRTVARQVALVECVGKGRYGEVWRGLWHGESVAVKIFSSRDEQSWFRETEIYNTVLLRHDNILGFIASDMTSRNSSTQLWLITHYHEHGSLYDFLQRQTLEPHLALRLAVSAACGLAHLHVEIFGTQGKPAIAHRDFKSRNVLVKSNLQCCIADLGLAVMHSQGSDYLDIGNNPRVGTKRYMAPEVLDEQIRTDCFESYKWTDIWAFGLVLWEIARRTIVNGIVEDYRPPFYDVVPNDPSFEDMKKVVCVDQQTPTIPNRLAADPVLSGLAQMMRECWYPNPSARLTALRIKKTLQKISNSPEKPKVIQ

Consider `C=CC(=O)Nc1cccc(C(=O)Nc2ccc(Nc3cc(-c4[nH]c(SC)nc4C)ccn3)cc2)c1`, for which the % of control worked out at 141% in test [1] (at 1 µM), 89% in test [1] (at 5 µM), 91% in test [2] (at 1 µM) and 61% in test [2] (at 5 µM).
On to `CC(C)(O)[C@H](F)CN1Cc2cc(NC(=O)c3cnn4cccnc34)c(N3CCOCC3)cc2C1=O`, for which the dTM in test [3] came to 0.1 K.
In the case of `CN(C)C/C=C/C(=O)Nc1ccc(C(=O)N2CCCC(Nc3ncc(Cl)c(-c4c[nH]c5ccccc45)n3)C2)cc1` (stereo not drawn), the % of control is 69% in test [4] and 93% in test [5].
The compound `CCN(CC)CCCCNc1ncc2cc(-c3cc(OC)cc(OC)c3)c(NC(=O)NC(C)(C)C)nc2n1` registered a % of control in [6] of 100%.
As for `C=CC(=O)Nc1cc(-n2c(=O)ccc3cnc4ccc(-c5ccc(NS(C)(=O)=O)cc5)cc4c32)ccc1C`, the % of control stood at 92% in [7] (at 1 µM) and 98% in test [7] (at 10 µM).
`CNC(=O)Nc1ccc(-c2nc(N3CC4CCC(C3)O4)c3cnn(C4CCC5(CC4)OCCO5)c3n2)cc1`: the % of inhibition in test [8] came to 13%; in [9] it was 2%. This compound also had a % of control in [10] of 100%.
